Results from US6579881B2 (Eisai Co., Ltd., priority 1997, dated 2003).
pKi: −log10 of the molar value. Where two headings read alike, the source gives them in different places.

Assays:
[1] = system: Straub's tail reaction (hyper-muscle tone in the tail); test: Morphine induced Straub's tail phenomenon in mice; assay type: in vivo; settings: Mus musculus, male ddY mice, 15 min before morphine hydrochloride 12.5 mg/kg s.c., statistically significant (p<0.05)
[2] = target: serotonin 2 receptor (Rattus norvegicus, UniProt P14842); test: Binding test on [3H] ketanserin (serotonin 2 receptor); settings: [3H] ketanserin 0.3 nM, receptor fraction of rat cerebral cortex; read-out: 5HT2
[3] = target: α1 adrenalin receptor; test: Binding test on [3H] prazosin (α1 adrenalin receptor); design: species or system rat; settings: [3H] prazosin about 0.2 nM, receptor fraction of rat cerebral cortex
[4] = target: T1, serotonin 1A receptor (Rattus norvegicus, UniProt P19327); test: Binding test on [3H] 8-hydroxy-dipropylaminotetralin (serotonin 1A receptor); settings: [3H] 8-OH-DPAT 0.5 nM, receptor fraction of rat hippocampus; read-out: 5HT1a
T1 construct: To the receptor fraction of the hippocampus were added a test compound and 0.5 nM of [^3H]; 8-hydroxy-dipropylaminotetralin; from tissue; host or cells: SD rat hippocampus, membrane (receptor) fraction
T1 sequence (P19327 1-422): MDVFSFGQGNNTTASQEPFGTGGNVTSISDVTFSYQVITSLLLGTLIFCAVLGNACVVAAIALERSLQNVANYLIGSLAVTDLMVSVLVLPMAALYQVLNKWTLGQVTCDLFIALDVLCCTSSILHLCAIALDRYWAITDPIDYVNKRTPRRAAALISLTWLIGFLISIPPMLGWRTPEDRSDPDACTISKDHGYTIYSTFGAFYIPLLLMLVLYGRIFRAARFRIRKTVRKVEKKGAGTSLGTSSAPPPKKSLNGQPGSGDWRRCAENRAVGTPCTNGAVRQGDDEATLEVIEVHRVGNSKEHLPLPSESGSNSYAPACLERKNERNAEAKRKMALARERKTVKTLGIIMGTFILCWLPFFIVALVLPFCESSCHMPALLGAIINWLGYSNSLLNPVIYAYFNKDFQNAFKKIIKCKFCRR

[5] = po, p.o., read-out: minimal effective dose p.o.
[6] = ip, i.p., read-out: minimal effective dose i.p.

Sequence of serotonin 2 receptor (P14842 whole entry): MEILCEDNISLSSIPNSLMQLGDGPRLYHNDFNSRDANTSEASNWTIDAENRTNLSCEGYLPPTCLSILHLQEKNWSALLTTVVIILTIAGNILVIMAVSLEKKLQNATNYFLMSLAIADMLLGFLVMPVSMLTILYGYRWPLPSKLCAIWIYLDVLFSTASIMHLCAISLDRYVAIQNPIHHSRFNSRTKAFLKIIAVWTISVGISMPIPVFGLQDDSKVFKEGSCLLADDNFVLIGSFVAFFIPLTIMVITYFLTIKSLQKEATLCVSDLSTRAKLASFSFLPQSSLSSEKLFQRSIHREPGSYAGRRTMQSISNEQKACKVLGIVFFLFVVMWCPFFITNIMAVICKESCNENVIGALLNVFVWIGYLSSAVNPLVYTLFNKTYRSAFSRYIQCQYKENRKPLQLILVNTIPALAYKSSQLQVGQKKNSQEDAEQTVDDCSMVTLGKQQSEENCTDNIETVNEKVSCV

Compound	minimal effective dose [1, 5] [mg/kg]	pKi [2]	pKi [3]	pKi [4]	minimal effective dose [1, 6] [mg/kg]	melting point [°C]
CC(c1ccc2c(c1)N(C1CCN(CCc3ccc(F)cc3)CC1)CC2)c1ccccn1 (stereo not shown) [Example 182, 1-[1-(4-fluorophenethyl)piperidin-4-yl]-6-[1-(2-pyridyl)ethyl]indoline]	10	8.54	7.15	8.37		
COc1ncccc1C(O)c1ccc2c(c1)N(C1CCN(CCc3ccc(F)cc3)CC1)CC2 (stereo not shown) [Example 184, 1-[1-(4-fluorophenethyl)piperidin-4-yl]-6-[1-hydroxy-1-(2-methoxypyridin-3-yl)methyl]indoline]	3	8.51	6.72	7.82		
COc1ccc(Cc2ccc3c(c2)N(C2CCN(CCc4ccc(F)cc4)CC2)CC3)cn1 [Example 189, 1-[1-(4-fluorophenethyl)piperidin-4-yl]-6-[1-(2-methoxypyridin-5-yl)methyl]indoline]	10	8.69	6.35	8.11		
OC(c1ccc2c(c1)N(C1CCN(CCc3ccc(F)cc3)CC1)CC2)c1ncccn1 (stereo not shown) [Example 197, 1-[1-(4-fluorophenethyl)piperidin-4-yl]-6-[1-hydroxy-1-(pyrimidin-2-yl)methyl]indoline]	10	8.90	7.16	7.98		
O=C1CCC(=O)N1Cc1ccc2c(c1)N(C1CCN(CCc3ccc(F)cc3)CC1)CC2 [Example 204, 1-[1-(4-fluorophenethyl)piperidin-4-yl]-6-(succinimido-1-yl)methylindoline]	3	8.35	6.74	8.97	3	
Fc1ccc(CCN2CCC(C3CCc4ccccc43)CC2)cc1 (stereo not shown) [Example 248, 1-[1-(4-fluorophenethyl)piperidin-4-yl]indan]	30	8.17	7.12	8.54	≤ 10	
COc1ccc2c(c1)CCCC2C1CCN(CCc2ccc(F)cc2)CC1 (stereo not shown) [Example 277, 1-[2-(4-fluorophenyl)ethyl]-4-(6-methoxy-1,2,3,4-tetrahydronaphthalen-1-yl)piperidine]	30	8.41	6.45	7.64	< 1	
CC(=O)NCc1ccc2ccn(C3CCN(CCc4ccc(F)cc4)CC3)c2c1 [Example 285, 1-[1-(4-fluorophenethyl)piperidin-4-yl]-6-acetamidomethylindole]	1	8.86	7.57	9.36	1	127 to 128
